Laboratory results taken from US8916681B2, “Compound, use and method” (Medical Research Council, priority 2007, dated 2014).
Values belong to the compound of their own block, whether it stands above or below them. Non-standard residues stand in square brackets, D forms with d. Residues, ends and D or L forms follow the SMILES beside them.

Tests used:
Type in all cases: cell-based
GPR54 [1] = target: T1, GPR54 (Homo sapiens, UniProt Q969F8); assay: Inositol phosphate (IP) antagonism assay: inhibition of 10 nM kisspeptin-10 stimulation of IP in CHO/gpr-54 cells; set-up: G. Vassart, Univ; Brussels; conditions: CHO cells, 10 nM kisspeptin-10; for IC50: unit inferred, given in M
T1 sequence (Q969F8 whole entry): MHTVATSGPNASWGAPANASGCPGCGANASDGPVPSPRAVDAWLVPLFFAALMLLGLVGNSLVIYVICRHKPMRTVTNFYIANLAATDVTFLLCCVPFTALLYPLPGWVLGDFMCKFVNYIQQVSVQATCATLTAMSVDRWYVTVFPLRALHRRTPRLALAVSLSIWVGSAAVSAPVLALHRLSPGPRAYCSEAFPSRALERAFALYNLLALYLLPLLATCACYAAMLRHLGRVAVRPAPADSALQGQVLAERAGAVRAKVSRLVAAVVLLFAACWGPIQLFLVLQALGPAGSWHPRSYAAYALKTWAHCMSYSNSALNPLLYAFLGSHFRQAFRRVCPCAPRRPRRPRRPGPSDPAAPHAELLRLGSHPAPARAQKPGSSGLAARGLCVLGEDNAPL
Description: Inositol-3-phoshate Antagonistic Assay—Cell monolayers had 0.5 mls HEPES modified DMEM supplemented with […] for 30 mins at 37° C. to block IP3 breakdown. Cells were then stimulated with 0.25 mls 10 nM Kisspeptin-10 plus 0.25 mls of 10 nM Kisspeptin-10 or analogues (10 pM-10 uM) diluted at 1:1000 in the above media for 1 hr at 37° C., then in 10 mM Formic acid at 4° C. for 1 hr to lyse cells. Lysate was then transferred to plastic tubes containing 0.5 mls Dowex resin to bind the radioactive IP3 and the resin was then washed with 1 ml H2O. The resin was then washed with 60 mM NH4 formate/5 mM Sodium tetraborate followed by 1M NH4 formate/0.1M Formic acid to release the bound radiation. Then 800 μls of the radioactive solution were transferred to scintillation vials containing 2.5 mls scintillation fluid and radioactivity counted on a Beta counter for 60 seconds.
Chinese hamster ovary (CHO) cells stably-expressing the human gpr-54 receptor (CHO/gpr-54) were obtained from Prof. G. Vassart, Univ. Brussels. The cells were maintained in Dulbecco's modified Eagle's medium (DMEM; Sigma) supplemented with 10% fetal calf serum, 2% glutamine and 1% penicillin (10,000 units/ml)/streptomycin ([…]) at 37° C. in a humidified 5% CO2 atmosphere.
Experiments were repeated 3-5 times. IP production was plotted as mean values±SEM and analyzed using a Student's t-Test ([…]).

[2] = test system: HUVECs (Human Umbilical Vein Endothelial Cells); assay: Cell migration (wound healing) assay in HUVECs; conditions: 22 hrs
Description: Human Umbilical Vein Endothelial Cells (HUVECs) isolated from neonatal umbilical cord were used as they endogenously express gpr-54, which is though to be involved in cell migration in the placenta. Chinese hamster ovary (CHO) cells which stably express the human gpr-54 receptor were used as a model cell line for wound healing assays. […] Complete media was added along with 1 nM Kisspeptin-10 for HUVECs and 100 nM Kisspeptin-10 for CHO cells, the optimal concentrations to inhibit cell migration (wound healing) in each cell type, in the presence and absence of antagonist 233, 234, 273 and 276 for HUVECs and 234 for CHOs. […] Cells were photographed on the axiovert 2000 at 20× magnification in phase contrast (Hori et al., 2001. Metastin suppresses the motility and growth of CHO cells transfected with its receptor. Biochem Biophys Res Commun 286, 958-963; Stafford et al., 2002, Identification and characterization of mouse metastasis-suppressor KiSS1 and its G-protein-coupled receptor. Cancer Res 62, 5399-5404).

GPR54 [3] = target: T1, GPR54; assay: Inositol phosphate (IP) stimulation assay in CHO/gpr-54 cells; set-up: G. Vassart, Univ; Brussels; conditions: CHO cells stably-expressing human gpr-54
Description: Inositol-3-phoshate Stimulation Assay—Cell monolayers had 0.5 mls HEPES modified DMEM supplemented with 1% Penicillin/Streptomycin for 30 mins at 37° C. to block IP3 breakdown. Cells were then stimulated with 0.5 mls Kisspeptin-10 and analogues (10 pM-1 uM) diluted at 1:1000 in the above media for 1 hr at 37° C., then in 10 mM Formic acid at 4° C. for 1 hr to lyse cells. Lysate was then transferred to plastic tubes containing 0.5 mls Dowex resin to bind the radioactive IP3 and the resin was then washed with 1 ml H2O. The resin was then washed with 60 mM NH4 formate/5 mM Sodium tetraborate followed by 1M NH4 formate/0.1M Formic acid to release the bound radiation. Then 800 μls of the radioactive solution were transferred to scintillation vials containing 2.5 mls scintillation fluid and radioactivity counted on a Beta counter for 60 seconds.
IP stimulation refers to intrinsic residual agonist activity where estimateable.
The cells were maintained in Dulbecco's modified Eagle's medium (DMEM; Sigma) supplemented with 10% fetal calf serum, 2% glutamine and 1% penicillin (10,000 units/ml)/streptomycin (10,000 mg/ml) at 37° C. in a humidified 5% CO2 atmosphere.
Prior to stimulation CHO/gpr-54 cells were washed twice with Dulbecco's phosphate-buffered saline (DPBS; without calcium or magnesium) then incubated overnight with ^3H-myoinositol, labeled HEPES-modified DMEM with 1% penicillin/streptomycin at 37° C. HEPES-modified DMEM supplemented with 1% penicillin/streptomycin and 1% lithium chloride (0.5 ml) was added to cells for 30 min at 37° C. to block IP hydrolysis. Cells were then stimulated with 0.5 ml kisspeptin-10 and analogues (10 pM-1 μM) diluted at 1:100 in the above media for 1 h at 37° C., then with 10 mM formic acid at 4° C. for 1 h to lyse cells. Lysates were transferred to plastic tubes containing 0.5 ml Dowex resin to bind the radioactive IP and the resin was then washed with 1 ml water. The resin was next washed with 60 mM ammonium formate/5 mM sodium tetraborate. followed by 1M ammonium formate/0.1M formic acid to release the bound radiation. Then 800 μl of the radioactive solution were transferred to scintillation vials containing 2.5 ml scintillation fluid and radioactivity counted on a Beta counter for 60 sec. Experiments were repeated 3-5 times. IP production was plotted as mean values±SEM and analyzed by using a Student's t-Test (p≧0.05).

Structure (SMILES): CC(C)C[C@@H](NC(=O)CNC(=O)[C@H](Cc1ccccc1)NC(=O)CNC(=O)[C@H](CC(N)=O)NC(=O)[C@H](Cc1c[nH]c2ccccc12)NC(=O)[C@H](CC(N)=O)NC(=O)[C@@H](N)Cc1ccc(O)cc1)C(=O)N[C@@H](CCCNC(=N)N)C(=O)N[C@@H](Cc1ccccc1)C(N)=O [Peptide 209] (H-YNWNGFG[dL]RF-NH2)
- Inhibition of IP stimulation by 10 nM Agonist: % Inhibition of Max (GPR54 [1]): 61%
- IC50 (GPR54 [1]): 100 nM

Structure (SMILES): CC(=O)N[C@@H](Cc1ccc(O)cc1)C(=O)N[C@H](CC(N)=O)C(=O)N[C@@H](Cc1c[nH]c2ccccc12)C(=O)N[C@@H](CC(N)=O)C(=O)NCC(=O)N[C@@H](Cc1ccccc1)C(=O)NCC(=O)N[C@H](Cc1c[nH]c2ccccc12)C(=O)N[C@@H](CCCNC(=N)N)C(=O)N[C@@H](Cc1ccccc1)C(N)=O [Peptide 232] (Ac-Y[dN]WNGFG[dW]RF-NH2)
- IC50 (GPR54 [1]): 30 nM
- stimulation of IP by the peptide alone (GPR54 [3]): little or no stimulation

Structure (SMILES): CC(=O)N[C@H](Cc1ccc(O)cc1)C(=O)N[C@@H](CC(N)=O)C(=O)N[C@@H](Cc1c[nH]c2ccccc12)C(=O)N[C@@H](CC(N)=O)C(=O)NCC(=O)N[C@@H](Cc1ccccc1)C(=O)NCC(=O)N[C@H](Cc1c[nH]c2ccccc12)C(=O)N[C@@H](CCCNC(=N)N)C(=O)N[C@@H](Cc1ccccc1)C(N)=O [Peptide 230] (Ac-[dY]NWNGFG[dW]RF-NH2)
- IC50 (GPR54 [1]): 50 nM
- stimulation of IP by the peptide alone (GPR54 [3]): little or no stimulation

Structure (SMILES): N=C(N)NCCC[C@H](NC(=O)[C@@H](Cc1c[nH]c2ccccc12)NC(=O)CNC(=O)[C@H](Cc1ccccc1)NC(=O)CNC(=O)[C@H](CC(N)=O)NC(=O)[C@H](Cc1c[nH]c2ccccc12)NC(=O)[C@H](CC(N)=O)NC(=O)[C@@H](N)Cc1ccc(O)cc1)C(=O)N[C@@H](Cc1ccccc1)C(N)=O [Peptide 210] (H-YNWNGFG[dW]RF-NH2)
- Inhibition of IP stimulation by 10 nM Agonist: % Inhibition of Max (GPR54 [1]): 64%
- IC50 (GPR54 [1]): < 0.1 nM

Structure (SMILES): CC(=O)N[C@@H](C)C(=O)NCC(=O)N[C@@H](CC(C)C)C(=O)N[C@@H](CCCNC(=N)N)C(=O)N[C@@H](Cc1c[nH]c2ccccc12)C(N)=O [Peptide 202] (Ac-AGLRW-NH2)
- Inhibition of IP stimulation by 10 nM Agonist: % Inhibition of Max (GPR54 [1]): 64%
- IC50 (GPR54 [1]): 10 nM

Structure (SMILES): CC(=O)N[C@@H](Cc1ccccc1)C(=O)NCC(=O)N[C@H](Cc1ccccc1)C(=O)N[C@@H](CCCNC(=N)N)C(=O)N[C@@H](Cc1c[nH]c2ccccc12)C(N)=O [Peptide 190] (Ac-FG[dF]RW-NH2)
- Inhibition of IP stimulation by 10 nM Agonist: % Inhibition of Max (GPR54 [1]): 71%
- IC50 (GPR54 [1]): 10 nM

Structure (SMILES): CC(=O)N[C@@H](Cc1ccc(O)cc1)C(=O)N[C@@H](CC(N)=O)C(=O)N[C@@H](Cc1c[nH]c2ccccc12)C(=O)N[C@@H](CC(N)=O)C(=O)NCC(=O)N[C@@H](Cc1ccccc1)C(=O)NCC(=O)N[C@H](Cc1c[nH]c2ccccc12)C(=O)N[C@@H](CCCNC(=N)N)C(=O)N[C@@H](Cc1ccccc1)C(N)=O [Peptide 228] (Ac-YNWNGFG[dW]RF-NH2)
- Inhibition of IP stimulation by 10 nM Agonist: % Inhibition of Max (GPR54 [1]): 58%
- IC50 (GPR54 [1]): 50 nM

Structure (SMILES): CC(=O)N[C@H](Cc1ccccc1)C(=O)N[C@@H](Cc1c[nH]c2ccccc12)C(=O)N[C@@H](CC(C)C)C(=O)N[C@@H](CCCNC(=N)N)C(=O)N[C@@H](Cc1c[nH]c2ccccc12)C(N)=O [Peptide 203] (Ac-[dF]WLRW-NH2)
- Inhibition of IP stimulation by 10 nM Agonist: % Inhibition of Max (GPR54 [1]): 71%
- IC50 (GPR54 [1]): 0.1 nM

Further lines, with some results ahead:

- Inhibition of IP stimulation by 10 nM Agonist: % Inhibition of Max (GPR54 [1]): 79%
- IC50 (GPR54 [1]): 4 nM
Structure (SMILES): CC(=O)N[C@H](C)C(=O)N[C@@H](CC(N)=O)C(=O)N[C@@H](Cc1c[nH]c2ccccc12)C(=O)N[C@@H](CC(N)=O)C(=O)N[C@H](CO)C(=O)N[C@@H](Cc1ccccc1)C(=O)NCC(=O)N[C@H](Cc1c[nH]c2ccccc12)C(=O)N[C@@H](CCCNC(=N)N)C(=O)N[C@@H](Cc1ccccc1)C(N)=O [Peptide 273] (Ac-[dA]NWN[dS]FG[dW]RF-NH2)
- inhibition of migration by 1 nM Kisspeptin in the presence of peptide [2]: 10%

- IC50 (GPR54 [1]): 50 nM
- stimulation of IP by the peptide alone (GPR54 [3]): little or no stimulation
Structure (SMILES): CC(=O)N[C@@H](Cc1ccc(O)cc1)C(=O)N[C@H](C)C(=O)N[C@@H](Cc1c[nH]c2ccccc12)C(=O)N[C@@H](CC(N)=O)C(=O)NCC(=O)N[C@@H](Cc1ccccc1)C(=O)NCC(=O)N[C@H](Cc1c[nH]c2ccccc12)C(=O)N[C@@H](CCCNC(=N)N)C(=O)N[C@@H](Cc1ccccc1)C(N)=O [Peptide 236] (Ac-Y[dA]WNGFG[dW]RF-NH2)

- Inhibition of IP stimulation by 10 nM Agonist: % Inhibition of Max (GPR54 [1]): 44%
- IC50 (GPR54 [1]): > 100 nM
Structure (SMILES): CC(=O)N[C@H](C)C(=O)N[C@@H](CC(N)=O)C(=O)N[C@@H](Cc1c[nH]c2ccccc12)C(=O)N[C@@H](CC(N)=O)C(=O)N1CCC[C@@H]1C(=O)N[C@@H](Cc1ccccc1)C(=O)NCC(=O)N[C@H](Cc1c[nH]c2ccccc12)C(=O)N[C@@H](CCCNC(=N)N)C(=O)N[C@@H](Cc1ccccc1)C(N)=O [Peptide 275] (Ac-[dA]NWN[dP]FG[dW]RF-NH2)

- Inhibition of IP stimulation by 10 nM Agonist: % Inhibition of Max (GPR54 [1]): 0%
Structure (SMILES): CC(=O)N[C@H](Cc1ccc(O)cc1)C(=O)N[C@@H](CC(N)=O)C(=O)N[C@@H](Cc1c[nH]c2ccccc12)C(=O)N[C@@H](CC(N)=O)C(=O)NCC(=O)N[C@@H](Cc1ccccc1)C(=O)NCC(=O)N[C@@H](Cc1c[nH]c2ccccc12)C(=O)N[C@@H](CCCNC(=N)N)C(=O)N[C@@H](Cc1ccccc1)C(N)=O [Peptide 237] (Ac-[dY]NWNGFGWRF-NH2)

- IC50 (GPR54 [1]): 10 nM
- stimulation of IP by the peptide alone (GPR54 [3]): little or no stimulation
Structure (SMILES): CC(=O)N[C@@H](Cc1ccc(O)cc1)C(=O)N[C@@H](CC(N)=O)C(=O)N[C@H](C)C(=O)N[C@@H](CC(N)=O)C(=O)NCC(=O)N[C@@H](Cc1ccccc1)C(=O)NCC(=O)N[C@H](Cc1c[nH]c2ccccc12)C(=O)N[C@@H](CCCNC(=N)N)C(=O)N[C@@H](Cc1ccccc1)C(N)=O [Peptide 235] (Ac-YN[dA]NGFG[dW]RF-NH2)

- Inhibition of IP stimulation by 10 nM Agonist: % Inhibition of Max (GPR54 [1]): 55%
- IC50 (GPR54 [1]): 10 nM
Structure (SMILES): CC(=O)N[C@H](Cc1c[nH]c2ccccc12)C(=O)N[C@@H](CC(N)=O)C(=O)N[C@@H](Cc1c[nH]c2ccccc12)C(=O)N[C@@H](CC(N)=O)C(=O)NCC(=O)N[C@@H](Cc1ccccc1)C(=O)NCC(=O)N[C@H](Cc1c[nH]c2ccccc12)C(=O)N[C@@H](CCCNC(=N)N)C(=O)N[C@@H](Cc1ccccc1)C(N)=O [Peptide 243] (Ac-[dW]NWNGFG[dW]RF-NH2)

- Inhibition of IP stimulation by 10 nM Agonist: % Inhibition of Max (GPR54 [1]): 57%
Structure (SMILES): CC(=O)N[C@H](C)C(=O)N[C@@H](CC(N)=O)C(=O)N[C@@H](Cc1c[nH]c2ccccc12)C(=O)N[C@@H](CC(N)=O)C(=O)N[C@H](C)C(=O)N[C@@H](Cc1ccccc1)C(=O)NCC(=O)N[C@@H](CC(C)C)C(=O)N[C@@H](CCCNC(=N)N)C(=O)N[C@@H](Cc1ccccc1)C(N)=O [Peptide 277] (Ac-[dA]NWN[dA]FGLRF-NH2)

- Inhibition of IP stimulation by 10 nM Agonist: % Inhibition of Max (GPR54 [1]): 60%
- IC50 (GPR54 [1]): 10 nM
Structure (SMILES): CC(=O)N[C@H](Cc1ccccc1)C(=O)N[C@@H](CC(N)=O)C(=O)N[C@@H](Cc1c[nH]c2ccccc12)C(=O)N[C@@H](CC(N)=O)C(=O)NCC(=O)N[C@@H](Cc1ccccc1)C(=O)NCC(=O)N[C@H](Cc1c[nH]c2ccccc12)C(=O)N[C@@H](CCCNC(=N)N)C(=O)N[C@@H](Cc1ccccc1)C(N)=O [Peptide 244] (Ac-[dF]NWNGFG[dW]RF-NH2)

- IC50 (GPR54 [1]): 20 nM
- stimulation of IP by the peptide alone (GPR54 [3]): little or no stimulation
Structure (SMILES): CC(=O)N[C@@H](Cc1ccc(O)cc1)C(=O)N[C@@H](CC(N)=O)C(=O)N[C@@H](Cc1c[nH]c2ccccc12)C(=O)N[C@@H](CC(N)=O)C(=O)N[C@H](C)C(=O)N[C@@H](Cc1ccccc1)C(=O)NCC(=O)N[C@H](Cc1c[nH]c2ccccc12)C(=O)N[C@@H](CCCNC(=N)N)C(=O)N[C@@H](Cc1ccccc1)C(N)=O [Peptide 233] (Ac-YNWN[dA]FG[dW]RF-NH2)
- inhibition of migration by 1 nM Kisspeptin in the presence of peptide [2]: 10%

- Inhibition of IP stimulation by 10 nM Agonist: % Inhibition of Max (GPR54 [1]): 47%
- IC50 (GPR54 [1]): > 200 nM
Structure (SMILES): CC(=O)N[C@H](C)C(=O)N[C@@H](CC(N)=O)C(=O)N[C@@H](Cc1c[nH]c2ccccc12)C(=O)N[C@@H](CC(N)=O)C(=O)NCC(=O)N[C@@H](Cc1ccccc1)C(=O)NCC(=O)N[C@@H](CC(C)C)C(=O)N[C@H](CCCNC(=N)N)C(=O)N[C@@H](Cc1ccccc1)C(N)=O [Peptide 278] (Ac-[dA]NWNGFGL[dR]F-NH2)
